Patent publication US20100292205A1, “Pyrimidone Compounds As GSK-3 Inhibitors” (PFIZER INC., priority 2006, published 2010)
Where two headings read alike, the source gives them in different places. Values belong to the molecule of their own block, whether it stands above or below them.

Target: T1, Recombinant human GSK3β (Homo sapiens, UniProt P49841)
T1 construct: His-tag; made in house; host or cells: Sf9 insect cells / baculovirus
Assay: GSK-3β (Glycogen Synthase Kinase) cell free enzyme assay
Assay type: biochemical
Conditions: for inhibition at 1 µM: read-out: Percent inhibition at 1 μM; for IC50: cell free enzyme assay
Outline: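 This cell-free kinase assay measured [33P] transfer from [33P]ATP gamma phosphate into the biotinylated peptide bio-LC-S-R-H-S-S-P-H-Q-pS-E-D-E-E-E-OH. After 60 min at RT, reactions were stopped with 0.66 volume of PBS lacking Ca or Mg containing 12.5 mM EDTA, 0.25% Triton-X 100, 125 uM ATP and 6.2 mg/ml streptavidin SPA beads. Bead-bound radioactivity was counted as CPM on a Trilux scintillation counter.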

[1] = GSK-3β cell free enzyme assay, Examples 42-60

T1 sequence (P49841 whole entry): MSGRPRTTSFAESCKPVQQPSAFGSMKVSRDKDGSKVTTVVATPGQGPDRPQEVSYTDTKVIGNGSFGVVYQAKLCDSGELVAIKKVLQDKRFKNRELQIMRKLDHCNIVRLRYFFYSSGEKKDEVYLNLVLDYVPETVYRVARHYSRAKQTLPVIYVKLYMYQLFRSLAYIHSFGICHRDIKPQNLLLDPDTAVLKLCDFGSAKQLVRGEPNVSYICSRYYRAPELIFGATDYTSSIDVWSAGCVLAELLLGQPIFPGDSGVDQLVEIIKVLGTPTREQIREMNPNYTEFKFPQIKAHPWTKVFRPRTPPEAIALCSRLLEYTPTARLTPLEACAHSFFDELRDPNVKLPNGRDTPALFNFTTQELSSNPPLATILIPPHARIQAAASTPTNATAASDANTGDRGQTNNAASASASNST

- inhibition at 1 µM [1]: 64%
SMILES: CCN(c1nc(-c2ccncc2)cc(=O)n1C)C1CCN(C(C)=O)C1 (centres unmarked) [Example 54, 2-[(1-Acetylpyrrolidin-3-yl)(ethyl)amino]-3-methyl-6-pyridin-4-ylpyrimidin-4(3H)-one]

- IC50 (Examples 62-155): 144 nM
SMILES: CCN(c1nc(-c2ccncc2)cc(=O)n1C)C1CCN(C(=O)c2ccccc2)CC1 [Example 74, 2-[(1-Benzoylpiperidin-4-yl)(ethyl)amino]-3-methyl-6-pyridin-4-ylpyrimidin-4(3H)-one]

- inhibition at 1 µM (Examples 236-262): 72%
SMILES: CN1CCCC(Nc2nc(-c3ccncc3)cc(=O)n2C)CC1 (centres unmarked) [Example 241, 3-Methyl-2-[(1-methylazepan-4-yl)amino]-6-pyridin-4-ylpyrimidin-4(3H)-one]

- IC50 (Examples 1-35): 9.1 nM
SMILES: Cn1c(NC2CCCN(C(=O)OC(C)(C)C)CC2)nc(-c2ccncc2)cc1=O (centres unmarked) [Example 8, tert-butyl 4-[(1-Methyl-6-oxo-4-pyridin-4-yl-1,6-dihydropyrimidin-2-yl)amino]azepane-1-carboxylate]

- inhibition at 1 µM (Examples 157-199): 80%
SMILES: CCN(c1nc(-c2ccncc2)cc(=O)n1C)C1CCN(S(C)(=O)=O)CC1 [Example 165, 2-{Ethyl[1-(methylsulfonyl)piperidin-4-yl]amino}-3-methyl-6-pyridin-4-ylpyrimidin-4(3H)-one]

- IC50 (Examples 62-155): 57.4 nM
SMILES: COC(=O)CCCC(=O)N1C[C@@H]2[C@H](C1)[C@H]2N(C)c1nc(-c2ccncc2F)cc(=O)n1C [Example 143, Methyl 5-[(1R,5S,6s)-6-{[4-(3-fluoropyridin-4-yl)-1-methyl-6-oxo-1,6-dihydropyrimidin-2-yl](methyl)amino}-3-azabicyclo[3.1.0]hex-3-yl]-5-oxopentanoate]

- IC50 (Examples 265-291): 55.7 nM
SMILES: CN(c1nc(-c2ccncc2F)cc(=O)n1C)[C@H]1[C@@H]2CN(c3nc4ccccc4s3)C[C@@H]21 [Example 283, 2-{[(1R,5S,6s)-3-(1,3-Benzothiazol-2-yl)-3-azabicyclo[3.1.0]hex-6-yl](methyl)amino}-6-(3-fluoropyridin-4-yl)-3-methylpyrimidin-4(3H)-one]

- IC50 (Examples 222-234): 0.95 nM
SMILES: CCOC(=O)N1CCC[C@@H](N(C)c2nc(-c3ccncn3)cc(=O)n2C)C1 [Example 230, Ethyl (3R)-3-[methyl(1-methyl-6-oxo-1,6-dihydro-4,4′-bipyrimidin-2-yl)amino]piperidine-1-carboxylate]

- IC50 (Examples 1-35): 3.9 nM
SMILES: COc1cccc2c1CC[C@@H](Nc1nc(-c3ccncc3)cc(=O)n1C)[C@H]2C [Example 28, 2-{[(1S,2R)-5-Methoxy-1-methyl-1,2,3,4-tetrahydronaphthalen-2-yl]amino}-3-methyl-6-pyridin-4-ylpyrimidin-4(3H)-one]

- IC50 (Examples 222-234): 1.14 nM
SMILES: CCOC(=O)N1CCCC(N(C)c2nc(-c3ccncn3)cc(=O)n2C)C1 (centres unmarked) [Example 222, Ethyl 3-[methyl(1-methyl-6-oxo-1,6-dihydro-4,4′-bipyrimidin-2-yl)amino]piperidine-1-carboxylate]

- inhibition at 1 µM (Examples 157-199): 101%
SMILES: CCN(c1nc(-c2ccncc2)cc(=O)n1C)C1CCCN(S(=O)(=O)c2ccccc2)C1 (centres unmarked) [Example 185, 2-{Ethyl[1-(phenylsulfonyl)piperidin-3-yl]amino}-3-methyl-6-pyridin-4-ylpyrimidin-4(3H)-one]

- inhibition at 1 µM (Examples 236-262): 91%
SMILES: Cn1c(N[C@@H]2CN(Cc3ccccc3)C[C@@H]2F)nc(-c2ccncc2)cc1=O [Example 253, 2-{[(3R,4S)-1-Benzyl-4-fluoropyrrolidin-3-yl]amino}-3-methyl-6-pyridin-4-ylpyrimidin-4(3H)-one]

- IC50 (Examples 62-155): 14.2 nM
SMILES: CN(c1nc(-c2ccncc2F)cc(=O)n1C)[C@H]1[C@@H]2CN(C(=O)Cc3ccccc3)C[C@@H]21 [Example 115, 6-(3-Fluoropyridin-4-yl)-3-methyl-2-{methyl[(1R,5S,6s)-3-(phenylacetyl)-3-azabicyclo[3.1.0]hex-6-yl]amino}pyrimidin-4(3H)-one]

- inhibition at 1 µM (Examples 157-199): 94%
SMILES: CN(c1nc(-c2ccncc2)cc(=O)n1C)C1CCCN(S(=O)(=O)Cc2ccccc2)CC1 (centres unmarked) [Example 196, 2-{[1-(Benzylsulfonyl)azepan-4-yl](methyl)amino}-3-methyl-6-pyridin-4-ylpyrimidin-4(3H)-one]

- IC50 (Examples 222-234): 0.994 nM
SMILES: COC(=O)N1CCC[C@@H](Nc2nc(-c3ccncn3)cc(=O)n2C)C1 [Example 228, Methyl (3R)-3-[(1-methyl-6-oxo-1,6-dihydro-4,4′-bipyrimidin-2-yl)amino]piperidine-1-carboxylate]

SMILES: CCN(c1nc(-c2ccncc2)cc(=O)n1C)C1CCN(Cc2ccccc2)CC1 [Example 260, 2-[(1-Benzylpiperidin-4-yl)(ethyl)amino]-3′-methyl-6-pyridin-4-ylpyrimidin-4(3H)-one]
- inhibition at 1 µM (Examples 236-262): 44%

SMILES: CN1C[C@H]2CC[C@@H](C1)N2c1nc(-c2ccncc2)cc(=O)n1C [Example 239, 3-Methyl-2-[(1R,5S)-3-methyl-38-diazabicyclo[3.2.1]oct-8-yl]-6-pyridin-4-ylpyrimidin-4(3H)-one]
- inhibition at 1 µM (Examples 236-262): 57%

- inhibition at 1 µM (Examples 157-199): 61%
SMILES: Cn1c(N[C@H]2[C@@H]3CN(S(C)(=O)=O)C[C@@H]32)nc(-c2ccncc2)cc1=O [Example 157, 3-Methyl-2-{[(1R,5S,6s)-3-(methylsulfonyl)-3-azabicyclo[3.1.0]hex-6-yl]amino}-6-pyridin-4-ylpyrimidin-4(3H)-one]

- IC50 (Examples 265-291): 18.8 nM
SMILES: CN(c1nc(-c2ccncc2F)cc(=O)n1C)[C@H]1[C@@H]2CN(c3nc4ccc(F)cc4n3C)C[C@@H]21 [Example 269, 2-{[(1R,5S,6s)-3-(6-Fluoro-1-methyl-1H-benzimidazol-2-yl)-3-azabicyclo[3.1.0]hex-6-yl](methyl)amino}-6-(3-fluoropyridin-4-yl)-3-methylpyrimidin-4(3H)-one]

- inhibition at 1 µM [1]: 93%
SMILES: CCN(c1nc(-c2ccncc2)cc(=O)n1C)C1CCN(C(C)=O)CC1 [Example 57, 2-[(1-Acetylpiperidin-4-yl)(ethyl)amino]-3-methyl-6-pyridin-4-ylpyrimidin-4(3H)-one]

- IC50 (Examples 1-35): 30 nM
SMILES: Cn1c(N[C@H]2Cc3ccccc3NC2=O)nc(-c2ccncc2)cc1=O [Example 9, (3S)-3-[(1-Methyl-6-oxo-4-pyridin-4-yl-1,6-dihydropyrimidin-2-yl)amino]-3,4-dihydroquinolin-2(1H)-one]

- IC50 (Examples 62-155): 6.98 nM
SMILES: CN(c1nc(-c2ccncc2F)cc(=O)n1C)[C@H]1[C@@H]2CN(C(=O)c3ccc(Cl)nc3)C[C@@H]21 [Example 126, 2-[{(1R,5S,6s)-3-[(6-Chloropyridin-3-yl)carbonyl]-3-azabicyclo[3.1.0]hex-6-yl}(methyl)amino]-6-(3-fluoropyridin-4-yl)-3-methylpyrimidin-4(3H)-one]

- IC50 (Examples 62-155): 202 nM
SMILES: Cn1c(NC2CCN(C(=O)c3ccccc3)CC2)nc(-c2ccncc2)cc1=O [Example 65, 2-[(1-Benzoylpiperidin-4-yl)amino]-3-methyl-6-pyridin-4-ylpyrimidin-4(3H)-one]

- inhibition at 1 µM (Examples 201-221): 99%
SMILES: COC(=O)N1CCCC(Nc2nc(-c3ccncc3)cc(=O)n2C)C1 (centres unmarked) [Example 210, Methyl 3-[(1-methyl-6-oxo-4-pyridin-4-yl-16-dihydropyrimidin-2-yl)amino]piperidine-1-carboxylate]

- inhibition at 1 µM (Examples 157-199): 93%
SMILES: CCN(c1nc(-c2ccncc2)cc(=O)n1C)C1CCCN(S(=O)(=O)Cc2ccccc2)CC1 (centres unmarked) [Example 197, 2-{[1-(Benzylsulfonyl)azepan-4-yl](ethyl)amino}-3-methyl-6-pyridin-4-ylpyrimidin-4(3H)-one]

- IC50 (Examples 62-155): 1.69 nM
SMILES: CN(c1nc(-c2ccncc2F)cc(=O)n1C)[C@H]1[C@@H]2CN(C(=O)c3cc(F)ccc3F)C[C@@H]21 [Example 130, 2-{[(1R,5S,6s)-3-(2,5-Difluorobenzoyl)-3-azabicyclo[3.1.0]hex-6-yl](methyl)amino}-6-(3-fluoropyridin-4-yl)-3-methylpyrimidin-4(3H)-one]

- IC50 (Examples 62-155): 3.92 nM
SMILES: CN(c1nc(-c2ccncc2F)cc(=O)n1C)[C@H]1[C@@H]2CN(C(=O)c3cccc(Cl)n3)C[C@@H]21 [Example 96, 2-[{(1R,5S,6s)-3-[(6-Chloropyridin-2-yl)carbonyl]-3-azabicyclo[3.1.0]hex-6-yl}(methyl)amino]-6-(3-fluoropyridin-4-yl)-3-methylpyrimidin-4(3H)-one]

- IC50 (Examples 62-155): 111 nM
SMILES: Cn1c(NC2CCN(C(=O)Cc3ccccc3)C2)nc(-c2ccncc2)cc1=O (centres unmarked) [Example 81, 3-Methyl-2-{[1-(phenylacetyl)pyrrolidin-3-yl]amino}-6-pyridin-4-ylpyrimidin-4(3H)-one]

- IC50 (Examples 1-35): 108 nM
SMILES: Cn1c(NCC2CCCN2C(=O)OC(C)(C)C)nc(-c2ccncc2)cc1=O (centres unmarked) [Example 18, tert-butyl 2-{[(1-Methyl-6-oxo-4-pyridin-4-yl-1,6-dihydropyrimidin-2-yl)amino]methyl} pyrrolidine-1-carboxylate]

- IC50 (Examples 62-155): 18.4 nM
SMILES: CN(c1nc(-c2ccncc2F)cc(=O)n1C)[C@H]1[C@@H]2CN(C(=O)C3CCC3)C[C@@H]21 [Example 107, 2-{[(1R,5S,6s)-3-(Cyclobutylcarbonyl)-3-azabicyclo[3.1.0]hex-6-yl](methyl)amino}-6-(3-fluoropyridin-4-yl)-3-methylpyrimidin-4(3H)-one]

- IC50 (Examples 62-155): 4.4 nM
SMILES: CN(c1nc(-c2ccncc2F)cc(=O)n1C)[C@H]1[C@@H]2CN(C(=O)c3cc(Cl)cc(Cl)c3)C[C@@H]21 [Example 116, 2-{[(1R,5S,6s)-3-(3,5-Dichlorobenzoyl)-3-azabicyclo[3.1.0]hex-6-yl](methyl)amino}-6-(3-fluoropyridin-4-yl)-3-methylpyrimidin-4(3H)-one]

- IC50 (Examples 62-155): 1.46 nM
SMILES: COc1cccc(C(=O)N2C[C@@H]3[C@H](C2)[C@H]3N(C)c2nc(-c3ccncc3F)cc(=O)n2C)c1 [Example 99, 6-(3-Fluoropyridin-4-yl)-2-{[(1R,5S,6s)-3-(3-methoxybenzoyl)-3-azabicyclo[3.1.0]hex-6-yl](methyl)amino}-3-methylpyrimidin-4(3H)-one]
